Measurements from US20260306476A1, “ANTIBACTERIAL COMPOUND PBT2” (priority 2022, published 2026).
Converted amounts (≈) assume the structure as drawn.

Key:
[1] = tested on: Neisseria gonorrhoeae strain WHO Z; test: MIC of Triton X-100 with/without PBT2; format: cell-based; details: 0.156 mg/L (sub-MIC) PBT2
From the text: Without wishing to be bound by theory, the inventors hypothesise that this may due to the fact PBT2 is a derivative of the iron chelator clioquinol and PBT2 has the capacity to chelate a range of heavy metals including iron. Genes encoding metal homeostasis proteins (blue dots) are presented in the volcano plot (FIG. 3). Metal homeostasis was previously identified as a crucial feature of gonococcal biology, and therefore it is postulated this may be an “Achilles' heel” with respect to Neisseria gonorrhoeae ionophore sensitivity. […] MpeR is an iron-repressed, AraC-like protein that regulates the mtr efflux locus (involved in antimicrobial susceptibility) in Neisseria gonorrhoeae. Up-regulation of mpeR (e. g. by PBT2) down-regulates MtrF and, in turn, would increase Neisseria gonorrhoeae sensitivity to the antimicrobial detergent, Triton X-100 (22). […] Thus, without wishing to be bound to theory, the inventors hypothesise that PBT2 may influence bacterial iron homeostasis and trigger general defence mechanisms, such as Mtr-mediated antimicrobial efflux, but the Mtr-system may be unable to protect against PBT2.

[2] = tested on: Neisseria gonorrhoeae WHO F; test: MIC of PBT2 alone (broth and agar); format: cell-based
From the text: (§1) 13 multidrug resistant WHO strains of Neisseria gonorrhoeae were selected to cover antimicrobial resistance phenotypes to all the antibiotics currently used. MS11 is a laboratory strain and ATCC49226 is a CLSI standard MIC control strain (CLSI. 2022. Performance Standards for Antimicrobial Susceptibility Testing, 32nd Edition. Clinical and Laboratory Standards Institute which is hereby incorporated by reference in its entirety). The MICs (minimum inhibitory concentration) of PBT2 alone in the absence of zinc or a further antimicrobial agent against these Neisseria gonorrhoea strains are summarised in Table 1.

[3] = tested on: Neisseria gonorrhoeae WHO E; test: MIC of PBT2 alone (broth and agar); format: cell-based
From the text: as §1

[4] = tested on: Neisseria gonorrhoeae WHO N; test: MIC of PBT2 alone (broth and agar); format: cell-based
From the text: as §1

[5] = tested on: Neisseria gonorrhoeae WHO O; test: MIC of PBT2 alone (broth and agar); format: cell-based
From the text: as §1

[6] = tested on: Neisseria gonorrhoeae WHO C; test: MIC of PBT2 alone (broth and agar); format: cell-based
From the text: as §1

[7] = tested on: Neisseria gonorrhoeae WHO G; test: MIC of PBT2 alone (broth and agar); format: cell-based
From the text: as §1

[8] = tested on: Neisseria gonorrhoeae WHO K; test: MIC of PBT2 alone (broth and agar); format: cell-based
From the text: as §1

[9] = tested on: Neisseria gonorrhoeae WHO Z; test: MIC of PBT2 alone (broth and agar); format: cell-based
From the text: as §1

[10] = tested on: Neisseria gonorrhoeae WHO X; test: MIC of PBT2 alone (broth and agar); format: cell-based
From the text: as §1

[11] = tested on: Neisseria gonorrhoeae WHO Y; test: MIC of PBT2 alone (broth and agar); format: cell-based
From the text: as §1

[12] = tested on: Neisseria gonorrhoeae WHO M; test: MIC of PBT2 alone (broth and agar); format: cell-based
From the text: as §1

[13] = tested on: Neisseria gonorrhoeae WHO P; test: MIC of PBT2 alone (broth and agar); format: cell-based
From the text: as §1

[14] = tested on: Neisseria gonorrhoeae MS11; test: MIC of PBT2 alone (broth and agar); format: cell-based
From the text: as §1

[15] = tested on: Neisseria gonorrhoeae WHO L; test: MIC of PBT2 alone (broth and agar); format: cell-based
From the text: as §1

[16] = tested on: methicillin-resistant Staphylococcus aureus (MRSA); details: in the absence of an antibiotic; cited from earlier work
[17] = tested on: primary human cervical epithelial (Pex) cells; test: PBT2-induced Pex cell cytotoxicity; format: cell-based; details: PBT2 0.016 to 4.695 mg/L; 24 h
Procedure: To assess the ability of PBT2 to cure an established gonococcal infection in a human ex vivo system, primary human cervical epithelial (Pex) cells were challenged with Neisseria gonorrhoeae strain WHO Z for 90 min and then treated with 0.1% DMSO (vehicle control), PBT2 (0.016 mg/L to 4.695 mg/L), or ceftriaxone (0.5 mg/L, positive control) for 24 h. Viable gonococci were then enumerated. […] PBT2-induced Pex cell cytotoxicity was not observed during the assay.

[18] = tested on: gram-positive and gram-negative bacteria; details: PBT2 in the presence of zinc; cited from earlier work
Neisseria gonorrhoeae = test: MIC / susceptibility across Neisseria gonorrhoeae strains; format: cell-based; details: for MIC: Neisseria gonorrhoeae
From the text: as §1

CN(C)Cc1ccc2c(Cl)cc(Cl)c(O)c2n1 [PBT2, 5,7-dichloro-2-[(dimethylamino)methyl]quinolin-8-ol]
effect on sensitivity to Triton X-100 [1]: increased the sensitivity
MIC ([2]; agar): 0.312 µg/mL
MIC ([2]; broth): 0.156 µg/mL
MIC ([3]; agar): 0.312 µg/mL
MIC ([3]; broth): 0.156 µg/mL
MIC ([4]; agar): 0.625 µg/mL
MIC ([4]; broth): 0.156 µg/mL
MIC ([5]; agar): 0.625 µg/mL
MIC ([5]; broth): 0.156 µg/mL
MIC ([6]; agar): 0.625 µg/mL
MIC ([6]; broth): 0.312 µg/mL
MIC ([7]; agar): 0.312 µg/mL
MIC ([7]; broth): 0.156 µg/mL
MIC ([8]; agar): 0.625 µg/mL
MIC ([8]; broth): 0.312 µg/mL
MIC ([9]; MIC concentration used in time-kill assay): 0.313 µg/mL
MIC ([9]; agar): 0.625 µg/mL
MIC ([9]; broth): 0.312 µg/mL
MIC ([10]; agar): 0.625 µg/mL
MIC ([10]; broth): 0.156 µg/mL
MIC ([11]; agar): 0.625 µg/mL
MIC ([11]; broth): 0.156 µg/mL
MIC ([12]; agar): 0.625 µg/mL
MIC ([12]; broth): 0.312 µg/mL
MIC ([13]; agar): 0.625 µg/mL
MIC ([13]; broth): 0.312 µg/mL
MIC ([14]; agar): 0.625 µg/mL
MIC ([14]; broth): 0.156 µg/mL
MIC ([15]; agar): 0.625 µg/mL
MIC ([15]; broth): 0.156 µg/mL
antibacterial activity [16]: neither PBT2 nor zinc alone displayed antibacterial activity which would be suitable to treat an infection
PBT2-induced Pex cell cytotoxicity [17]: not observed
susceptibility of bacteria to antibiotics [18]: more susceptible to antibiotics
MIC (Neisseria gonorrhoeae; MDR Neisseria gonorrhoeae): 0.313 µg/mL (≈ 1.15 µM)
MIC (Neisseria gonorrhoeae; all strains tested, agar, PBT2 alone): 0.312 to 0.625 µg/mL (≈ 1.15 to 2.31 µM)
MIC (Neisseria gonorrhoeae; all strains tested, broth, PBT2 alone): 0.156 to 0.312 µg/mL (≈ 0.575 to 1.15 µM)
susceptibility (Neisseria gonorrhoeae; all strains tested, PBT2 alone): highly susceptible
